According to paper PMC11189301, “Structure of the human outer kinetochore KMN network complex” (Nature Structural & Molecular Biology, 2024):

What was measured:
MIS12C^Dsn1ΔN = target: T1, MIS12C^Dsn1ΔN (Homo sapiens, UniProt Q6P1K2+Q96IY1+Q9H081+Q9H410, DEL6-113); assay: ITC, peptide titrated into MIS12C with deleted Dsn1^N (residues 6–113); format: binding; details: ITC Kd ratio, MIS12C^Dsn1ΔN vs MIS12C
T1 construct: all proteins, apart from Knl1, were full length; TEV-cleavable double Strep II (DS) tag (C); made in house; host or cells: High-5 insect cells (baculovirus; Nsl1-Dsn1 virus plus Mis12-Pmf1 virus)
T1 sequence (Q9H081 whole entry, stated change not applied, the tested form may be a part): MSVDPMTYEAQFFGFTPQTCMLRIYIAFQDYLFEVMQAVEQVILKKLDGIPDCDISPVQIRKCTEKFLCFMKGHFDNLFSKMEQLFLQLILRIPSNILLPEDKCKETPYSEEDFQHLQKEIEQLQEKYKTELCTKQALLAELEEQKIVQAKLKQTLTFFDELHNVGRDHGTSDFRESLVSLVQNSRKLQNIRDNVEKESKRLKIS
T1 sequence (Q6P1K2 whole entry, stated change not applied, the tested form may be a part): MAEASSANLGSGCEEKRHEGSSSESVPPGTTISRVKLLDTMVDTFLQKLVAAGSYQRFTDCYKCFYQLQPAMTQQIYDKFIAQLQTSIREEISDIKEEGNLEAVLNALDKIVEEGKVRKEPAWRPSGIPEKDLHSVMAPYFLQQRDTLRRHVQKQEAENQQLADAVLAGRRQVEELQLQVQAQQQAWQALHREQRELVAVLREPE
T1 sequence (Q9H410 with tags, fused parts or gaps DEL6-113): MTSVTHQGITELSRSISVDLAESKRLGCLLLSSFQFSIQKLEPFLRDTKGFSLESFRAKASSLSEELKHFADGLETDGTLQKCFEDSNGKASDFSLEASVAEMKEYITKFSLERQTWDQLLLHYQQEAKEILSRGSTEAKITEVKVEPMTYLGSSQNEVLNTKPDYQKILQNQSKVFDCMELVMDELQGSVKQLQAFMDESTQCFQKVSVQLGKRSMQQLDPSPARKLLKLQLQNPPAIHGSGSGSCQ
T1 sequence (Q96IY1 whole entry, stated change not applied, the tested form may be a part): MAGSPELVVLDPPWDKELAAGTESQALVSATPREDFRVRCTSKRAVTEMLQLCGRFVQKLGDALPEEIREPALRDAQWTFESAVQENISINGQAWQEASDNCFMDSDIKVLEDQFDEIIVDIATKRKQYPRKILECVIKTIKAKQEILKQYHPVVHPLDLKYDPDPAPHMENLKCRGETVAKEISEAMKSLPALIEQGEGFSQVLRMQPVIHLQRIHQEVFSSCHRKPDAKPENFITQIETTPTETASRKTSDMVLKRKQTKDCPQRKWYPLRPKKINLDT
Description: (§1) ITC was performed using an Auto-iTC200 instrument (Malvern Instruments) at 20 °C. Before the ITC runs, all components were dialyzed for at least 16 h against ITC buffer: 20 mM HEPES (pH 7.5), 100 mM NaCl and 1 mM TCEP at 4 °C. For each titration run, 370 µl of protein sample was loaded in the calorimeter cell. […] After the initial injection was discarded, the changes in the amount of heat released were integrated over the entire titration and fitted to a single-site binding model using the MicroCal PEAQ-ITC Analysis Software 1.0.0.1258 (Malvern Instruments). […] Titrations were performed in either duplicate or triplicate.
(§2) The Kd and stoichiometries (n) values are averages between at least two experiments. The reported error values are calculated standard deviations.

MIS12C (WT) = target: T2, MIS12C (WT) (Homo sapiens, UniProt Q6P1K2+Q96IY1+Q9H081+Q9H410); assay: Isothermal titration calorimetry (ITC), peptide titrated into wild-type MIS12C; format: binding; details: 20 °C, pH 7.5, wild-type MIS12C
T2 construct: TEV-cleavable double Strep II (DS) tag (C); made in house; host or cells: High-5 insect cells (baculovirus)
T2 sequence (Q9H081 whole entry): as the sequence (Q9H081 whole entry, stated change not applied, the tested form may be a part) above
T2 sequence (Q6P1K2 whole entry): as the sequence (Q6P1K2 whole entry, stated change not applied, the tested form may be a part) above
T2 sequence (Q9H410 whole entry): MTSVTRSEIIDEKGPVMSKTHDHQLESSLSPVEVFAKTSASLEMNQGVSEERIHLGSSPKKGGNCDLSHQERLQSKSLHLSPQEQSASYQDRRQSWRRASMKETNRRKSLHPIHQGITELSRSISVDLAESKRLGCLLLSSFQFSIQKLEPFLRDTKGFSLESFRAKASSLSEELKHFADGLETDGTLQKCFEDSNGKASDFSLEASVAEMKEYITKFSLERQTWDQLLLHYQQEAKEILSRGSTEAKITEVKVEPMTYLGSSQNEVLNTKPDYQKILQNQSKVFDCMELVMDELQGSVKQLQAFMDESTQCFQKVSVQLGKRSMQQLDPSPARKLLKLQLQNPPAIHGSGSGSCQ
T2 sequence (Q96IY1 whole entry): as the sequence (Q96IY1 whole entry, stated change not applied, the tested form may be a part) above
Description: as §1, §2

MIS12C = details: cited from earlier work
Description: We used isothermal titration calorimetry (ITC) to test this structural model by measuring the affinities of MIS12C for both a peptide modeled on CENP-C and a Dsn1^N auto-inhibitory peptide, including structure-guided interface mutants (Fig. 2g and Extended Data Fig. 4). […] Deletion of Dsn1^N (residues 6–113; MIS12C ...

Row | Substance | enhancement of Dsn1^92–113 binding on deleting Dsn1^N, relative to MIS12C (WT) (MIS12C^Dsn1ΔN) [fold] | affinity of Dsn1^92–113 for MIS12C, in words (MIS12C (WT)) | increase in affinity of MIS12C for residues 1–21 of CENP-C on deleting a ten-residue segment of Dsn1 incorporating Ser100 and Ser109 (MIS12C) [fold]
1 | Ac-RRQSWRRASMKETNRRKSLHPIAW-NH2 [Dsn1^92–113] | 44 | high-micromolar affinity | –
2 | residues 1–21 of CENP-C: residues 1–21 of CENP-C, prior data of ref 10 | – | – | 90
